Literature values as cited in patent publication US8945626B2, “Preparation of pharmaceutical compositions” (priority 2006, dated 2015).

## CC(=O)Nc1ccc(O)cc1 [Paracetamol, 4-Acetamidophenol]
  solubility in cold water: very slightly soluble
